Consider five compounds from the supplement of paper PMC11061612.

The test system of one assay is GI-ME-N (Neuroblastoma). Kind of assay: Bliss excess, mean over the matrix (fraction); higher = more synergy. In short, it runs like this:
(§1)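 Cell lines in DMEM/F12 or RPMI with 10% FBS were plated in 1536-well plates, held 24 hours at 37°C, 5% CO2, then given two-drug dose matrices for 72 hours (DMSO typically 0.2%). Viability was read by CellTiter-Glo 2.0 luminescence and scaled as inhibition from 0 (vehicle wells) to 1 (blank wells). Combination Emax is the second-highest inhibition in the matrix; Bliss excess is observed combination effect minus expected EA + EB − EA·EB, EA and EB being single-agent effects.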

The subject of assay [1] is NCI-H1693 (Lung Adenocarcinoma). The assay is described as above. The method, boiled down: as §1
Assay [2] has as its system BT-483 (Breast Carcinoma). The assay is described as above. In short, it runs like this: as §1
The next assay deals with ARH-77 (Non-Cancerous). The assay is described as above. In short, it runs like this:
as §1

The subject of another assay is U-2-OS (Osteosarcoma). Described as above. The method, boiled down: as §1
The subject of a further assay is 8-MG-BA (Glioblastoma). The description is as above. In short, it runs like this:
as §1

The test system of assay [3] is PANC-10-05 (Pancreatic Carcinoma). Described as above. The method, boiled down: as §1
The test system of assay [4] is BT-483 (Breast Carcinoma). The experiment in a line: combination Emax (second highest fraction inhibited in the dose matrix, 72 h); higher = more inhibition; extreme values may be limits of the assay. In short, it runs like this:
as §1
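Wherever Bliss excess, mean over the matrix is given: after 72 h of two-drug dosing.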

With `CN(C)CCCOc1ccc(-c2ccc3ncc4c(c3c2)n(C2CCOCC2)c(=O)n4C)cn1` [AZD0156] + O=C(c1cc(Cc2n[nH]c(=O)c3ccccc23)ccc1F)N1CCN(C(=O)C2CC2)CC1 [Olaparib] (first compound max 3 µM, partner max 3 µM), the Bliss excess in the assay with GI-ME-N (Neuroblastoma) is -0.0116; in assay [1] it was -0.0439; in assay [2], -0.0118; with ARH-77 (Non-Cancerous) it was 0.0648; with U-2-OS (Osteosarcoma) it was 0.0203; in the assay with 8-MG-BA (Glioblastoma), 0.079. Besides, the Bliss excess in assay [3] came out at 0.0378. Moreover, the “combination Emax” value in assay [4] is 0.313.

With `C=CCn1c(=O)c2cnc(Nc3ccc(N4CCN(C)CC4)cc3)nc2n1-c1cccc(C(C)(C)O)n1` [AZD1775] + C1CN(CCC1(C(=O)N[C@@H](CCO)C2=CC=C(C=C2)Cl)N)C3=NC=NC4=C3C=CN4 [Capivasertib] (first compound max 3 µM, partner max 3 µM), the Bliss excess is -0.0726 in the assay with GI-ME-N (Neuroblastoma); -0.0389 in assay [1]; -0.0416 in assay [2]; 0.018 with ARH-77 (Non-Cancerous); -0.0453 in the assay with U-2-OS (Osteosarcoma); 0.0277 in the assay on 8-MG-BA (Glioblastoma). Besides, the Bliss excess in assay [3] was -0.102. Also, in assay [4], the “combination Emax” value was 0.391.

For the compound `CC1(C)CCC(CN2CCN(c3ccc(C(=O)NS(=O)(=O)c4ccc(NCC5CCOCC5)c([N+](=O)[O-])c4)c(Oc4cnc5[nH]ccc5c4)c3)CC2)=C(c2ccc(Cl)cc2)C1` [Venetoclax] + C[C@@H](Nc1cc(F)cc(F)c1)c1cc(C(=O)N(C)C)cc2c(=O)cc(N3CCOCC3)oc12 [AZD8186] (first compound max 1 µM, 7x7, partner max 3 µM), the Bliss excess was -0.06 in the assay with GI-ME-N (Neuroblastoma); -0.034 in assay [1]; 0.0649 with ARH-77 (Non-Cancerous); -0.0269 in the assay on U-2-OS (Osteosarcoma); 0.0025 in the assay with 8-MG-BA (Glioblastoma); -0.0542 in assay [3].

Take `CC1(C)CCC(CN2CCN(c3ccc(C(=O)NS(=O)(=O)c4ccc(NCC5CCOCC5)c([N+](=O)[O-])c4)c(Oc4cnc5[nH]ccc5c4)c3)CC2)=C(c2ccc(Cl)cc2)C1` [Venetoclax] + Cc1cc2ncnn2cc1Nc1ncc2c(n1)n(C1CCOCC1)c(=O)n2C [AZD7648] (first compound max 1 µM, 7x7, partner max 10 µM): the Bliss excess was -0.0235 with GI-ME-N (Neuroblastoma); 0.0211 in assay [1]; 0.0245 with ARH-77 (Non-Cancerous); -0.0178 with U-2-OS (Osteosarcoma); -0.0139 with 8-MG-BA (Glioblastoma); -0.0721 in assay [3].

For the compound `CC1(C)CCC(CN2CCN(c3ccc(C(=O)NS(=O)(=O)c4ccc(NCC5CCOCC5)c([N+](=O)[O-])c4)c(Oc4cnc5[nH]ccc5c4)c3)CC2)=C(c2ccc(Cl)cc2)C1` [Venetoclax] + Cn1cnc2c(F)c(Nc3ccc(Br)cc3Cl)c(C(=O)NOCCO)cc21 [Selumetinib] (first compound max 1 µM, 7x7, partner max 3 µM), the Bliss excess was -0.0744 in the assay with GI-ME-N (Neuroblastoma); -0.0396 in assay [1]; 0.0304 with ARH-77 (Non-Cancerous); -0.0309 in the assay on U-2-OS (Osteosarcoma); -0.0216 in the assay on 8-MG-BA (Glioblastoma); -0.0386 in assay [3].
